# Assay results reported in patent US4574080A, “Combination formulation” (A/S Alfred Benzon, priority 1982, dated 1986).
# What was measured:
# [1] = Adhesion of clopamide to (film-coated) potassium chloride crystals after dry coating / mechanical stress; type: physicochemical; conditions: for A: amount of clopamide adhered immediately after the dry coating / B: clopamide adhered per dose of finished granulate / C: clopamide removed during mixing of the granulate (A-B): Table 2, Talc 2.0 ×
# Description: A sample containing film-coated KCl-crystals with clopamide adhered to the surface was placed on a sieve.
# The sieve and sample were shaken (Pascal sieve, model 1) for 15 minutes. The quantity of clopamide adhered to the film-coated crystals was then determined as described under Content Uniformity (clopamide)
# The amount of clopamide adhered was determined as described under MATERIALS AND METHODS. In Table 1, the influence of the anti-adhesive and the coating time on the adhesion tendency of clopamide is shown.
# As a considerable amount of the clopamide (about 20%) is removed by the admixture of the necessary auxiliary materials for the tabletting process (vide Table 1), it was examined whether a more gentle, but more laborious method in which the auxiliary materials are premixed separately, thus reducing the final mixing time, would reduce this removal.
# The examinations were carried out as described above for the examination of the adhesion tendency of clopamide, and the amount of clopamide adhered was again determined as described under MATERIALS AND METHODS; the dry coating time was 60 minutes. The results are shown in Table 3 wherein A, B and C are as described above, and D designates the relative amount of adhered clopamide abrased during the final mixing [formula]
# [2] = Diuretic effect (urine volume) in healthy subjects; type: in vivo, human (healthy subjects); conditions: clopamide 20 mg
# Description: Complete balanced cross-over study with single dose administration.
# Blood samples were collected 36 hours and urine samples 24 hours after administration.
# 10 healthy subjects without any history of renal, hepatic, gastrointestinal or heart disease.
# Clopamide 20 mg and potassium chloride 2400 mg (32 mEq):
# Two days before drug administration and throughout the test days the volunteers were kept on a low potassium diet (less than 30 mEq) and a standardized calorie intake of about 2000 kcal per day. No tea, coffee or alcohol was allowed. For the individual person the diet was identical on all six test days (2 period of 3 days).
# The day before drug aministration the volunteers were given 100 ml water every hour from 09.00 a.m. during the next 12 hours, i.e. 1300 ml water per day. The same procedure was followed on the test day.
# Blood samples were drawn before dosing and 1, 2, 3, 4, 6, 8, 12, 24 and 36 hours after. Urine was collected quantitatively 24 hours before drug administration and 24 hours after in aliquots: 0-1 h, 1-2 h, 2-3 h, 3-4 h, 4-6 h, 6-8 h, 8-12 h, and 12-24 h.
# Data which fulfil the requirement for using parametric tests were analyzed by a three-way analysis of variance, splitting the total variation up into variations between subjects, treatment periods, treatment and residual. Logarithmic transformations of the variables have been used in appropriate cases.
# [3] = Colloidal silicon dioxide 0.13 × the amount of clopamide, coating time 10 min
# [4] = Colloidal silicon dioxide 0.13 × the amount of clopamide, coating time 30 min
# [5] = Colloidal silicon dioxide 0.13 × the amount of clopamide, coating time 60 min
# [6] = gentle admixture of auxiliary materials (5 min), coating time 60 min
# [7] = usual admixture of auxiliary materials (11 min), coating time 60 min
# [8] = Talc 2.0 × the amount of clopamide, coating time 10 min
# [9] = Talc 2.0 × the amount of clopamide, coating time 30 min
# [10] = Talc 2.0 × the amount of clopamide, coating time 60 min
# [11] = Talc […] the amount of clopamide, coating time 10 min
# [12] = Talc […] the amount of clopamide, coating time 30 min
# [13] = Talc […] the amount of clopamide, coating time 60 min
# [14] = treatment days compared to control days
structure (smiles),measurement,setting,value
"C[C@@H]1CCC[C@H](C)N1NC(=O)c1ccc(Cl)c(S(N)(=O)=O)c1 [Clopamide, 4-chloro-N--(cis-2,6-dimethylpiperidino)-3-sulfamoyl-benzamide]",A: amount of clopamide adhered in percent of the theoretical dose immediately after the dry coating,[1]; [3],70.4%
same,B: percentage of the theoretical dose of clopamide adhered per dose of finished granulate,[1]; [3],60.2%
same,C: percentage of a dose of clopamide removed during the mixing of the granulate (A-B),[1]; [3],10.2%
same,A: amount of clopamide adhered in percent of the theoretical dose immediately after the dry coating,[1]; [4],75.2%
same,B: percentage of the theoretical dose of clopamide adhered per dose of finished granulate,[1]; [4],58.8%
same,C: percentage of a dose of clopamide removed during the mixing of the granulate (A-B),[1]; [4],16.4%
same,A: amount of clopamide adhered in percent of the theoretical dose immediately after the dry coating,[1]; [5],85.8%
same,B: percentage of the theoretical dose of clopamide adhered per dose of finished granulate,[1]; [5],66.6%
same,C: percentage of a dose of clopamide removed during the mixing of the granulate (A-B),[1]; [5],19.2%
same,A: amount of clopamide adhered immediately after the dry coating,[1]; [6],83.0%
same,B: clopamide adhered per dose of finished granulate,[1]; [6],70.0%
same,C: clopamide removed during mixing of the granulate (A-B),[1]; [6],13.0%
same,A: amount of clopamide adhered immediately after the dry coating,[1]; [7],86.2%
same,B: clopamide adhered per dose of finished granulate,[1]; [7],70.6%
same,C: clopamide removed during mixing of the granulate (A-B),[1]; [7],15.6%
same,A: amount of clopamide adhered in percent of the theoretical dose immediately after the dry coating,[1]; [8],76.4%
same,B: percentage of the theoretical dose of clopamide adhered per dose of finished granulate,[1]; [8],53.8%
same,C: percentage of a dose of clopamide removed during the mixing of the granulate (A-B),[1]; [8],22.6%
same,A: amount of clopamide adhered in percent of the theoretical dose immediately after the dry coating,[1]; [9],87.6%
same,B: percentage of the theoretical dose of clopamide adhered per dose of finished granulate,[1]; [9],65.4%
same,C: percentage of a dose of clopamide removed during the mixing of the granulate (A-B),[1]; [9],22.2%
same,A: amount of clopamide adhered in percent of the theoretical dose immediately after the dry coating,[1]; [10],86.2%
same,B: percentage of the theoretical dose of clopamide adhered per dose of finished granulate,[1]; [10],70.6%
same,C: percentage of a dose of clopamide removed during the mixing of the granulate (A-B),[1]; [10],15.6%
same,A: amount of clopamide adhered in percent of the theoretical dose immediately after the dry coating,[1]; [11],96.4%
same,B: percentage of the theoretical dose of clopamide adhered per dose of finished granulate,[1]; [11],65.0%
same,C: percentage of a dose of clopamide removed during the mixing of the granulate (A-B),[1]; [11],31.4%
same,A: amount of clopamide adhered in percent of the theoretical dose immediately after the dry coating,[1]; [12],88.4%
same,B: percentage of the theoretical dose of clopamide adhered per dose of finished granulate,[1]; [12],69.8%
same,C: percentage of a dose of clopamide removed during the mixing of the granulate (A-B),[1]; [12],18.6%
same,A: amount of clopamide adhered in percent of the theoretical dose immediately after the dry coating,[1]; [13],100.2%
same,B: percentage of the theoretical dose of clopamide adhered per dose of finished granulate,[1]; [13],78.6%
same,C: percentage of a dose of clopamide removed during the mixing of the granulate (A-B),[1]; [13],21.6%
same,effect of increased coating time on adhesion (in words),[1]; talc as anti-adhesive,"not only an increased adhesion, but also a more resistant adhesion"
same,amount of clopamide removed by the admixture of the auxiliary materials,[1]; vide Table 1,about 20%
same,"total 24 h urine, percent of that of control days",[2]; 95% CI 138.9 to 185.3%,160.4%
same,24 hours urine volume (in words),[2]; [14],statistically significant increase
same,hourly maximal urine volume (in words),[2]; [14],statistically significant increase
